Laboratory results reported in patent publication US11286304B2, “Anti-galectin-7 antibody, kit comprising the same, and uses thereof” (Academia Sinica, priority 2018, dated 2022).

Columns and labels:
[1] = test system: galectin-7; experiment: Galectin-7 expression in keratinocytes (real-time PCR, immunoblot); assay type: cell-based, human; conditions: for galectin-7 protein expression: treated with cytokines for 2 days, immunoblot; for galectin-7 mRNA and protein expression: 24 hours, methylprednisolone 10.6 μM, tobramycin 8.6 μM, fluvastatin 9.2 μM, pempidine 13 μM
Description: Human keratinocyte cell line HaCaT was maintained at 37° C. in Dulbecco's modified Eagle's medium (DMEM) supplemented with 10% of fetal bovine serum (FBS), 2 mM glutamine, 100 U/ml penicillin and 100 μg/ml streptomycin. Short hairpin RNA (shRNA) reagents were obtained from the National RNAi Core Facility located at the Institute of Molecular Biology and Genomic Research Center, Academia Sinica, supported by the National Core Facility Program for Biotechnology Grants of NSC. Four shRNAs with clone IDs of TRCN0000057393, TRCN0000057394, TRCN0000057395, and TRCN0000057396 were used to generate stable galectin-7 knockdown HaCaT clones. HaCaT cells were infected with one of the four shRNA-expressing lentiviruses and puromycin was employed to select stable cell clones after 3 days of infection. After puromycin selection, four individual pooled clones were cultured in puromycin-free medium for 2 weeks before further analysis.
Primary neonatal human epithelial keratinocytes, HEKn cells, were purchased from Gibco. HEKn cells were cultured at 37° C. in keratinocyte serum-free medium (K-SFM) supplemented with 30 μg/ml bovine pituitary extract and 5 ng/ml recombinant human epidermal growth factor from the same company. Compared with HaCaT cells, HEKn cells have a limited proliferation ability and are not suitable for establishing shRNA-based stable knockdown cells; therefore, a small interfering RNA (siRNA) oligo was used to transiently knock down the expression of galectin-7. The Silencer® Select siRNAs were purchased from Invitrogen, including negative control #1 and a predesigned siRNA targeting human galectin-7 (Catalog number: s230574, which targets the sequence of exon 3 of NM_002307.3). Thirty picomoles of siRNAs were delivered into HEKn cells in a 6-well plate setup by means of Lipofectamine 2000.
Cells were harvested and lysed in RIPA lysis buffer containing 1% of Triton X-100 and a protease inhibitor cocktail, and total protein concentrations were measured with a protein assay kit. Proteins in the samples of the lysates with the same amounts of total protein were separated by sodium dodecyl sulfate polyacrylamide gel electrophoresis (SDS-PAGE) and analyzed by immunoblotting. Primary antibodies against phospho-Erk1 (pT202)/Erk2 (pT185), Erk1, Erk2, NF-κB p65, phospho-NF-κB p65 (pS536), IκBα, phospho-IκBα pS32, β-actin, or GAPDH were applied to detect the corresponding proteins. Horseradish peroxidase (HRP)-conjugated secondary antibodies against mouse, rabbit, or goat IgG were then incubated with the membranes, and proteins were visualized by chemiluminescence according to the manufacturer's instructions. Protein quantification was performed by software.
Total RNAs (including mRNA and miRNA) were extracted from cultured cells or mouse ears with the TRIzol Reagent. For measurement of human galectin-7, IL-6, IL-8, IL-17A, and IFN-γ levels, mRNAs were reverse-transcribed into cDNA by means of the cDNA synthesis kit, and real-time PCR was carried out with specific probes accompanied with primers targeting humangalectin-7, IL-6, and IL-8 according to the manufacturer's instructions.

[2] = test system: galectin-7; experiment: Galectin-7 levels in lung cancer tumors transplanted in NOD SCID mice (IHC, immunoblot); assay type: in vivo; conditions: NOD SCID mice with A549, PC9, PC9-IR cells, 30 mg/kg daily oral gavage, day 21, vs saline
Description: NOD.CB17-Prkdcscid/JNarl mice obtained from National Laboratory Animal Center (Taiwan) were engrafted 2×10^6 lung cancer cells subcutaneously at the left and right flanks of the mice. After 10 days of tumor growth, mice were treated by oral gavage with 30 mg/kg fluvastatin or lovastatin in saline solution, or saline solution alone as control, once per day for 21 days. The tumor plaques were harvested and each of them was cut into two pieces. One piece was for immunoblot analysis, and the other one was fixed with 10% formalin and embedded into paraffin block for IHC staining. All animal studies were conducted in the experimental animal facilities of Institute of Biomedical Sciences, Academia Sinica, Taipei, Taiwan, in accordance to institutional rules and ethical guidelines for experimental animal care.

[3] = test system: IL-6; experiment: IL-6 production by keratinocytes (ELISA); assay type: cell-based, human; conditions: HaCaT and HEKn cells subjected to immune stimuli, ELISA
Description: (§1) To measure the concentrations of proinflammatory cytokines secreted by keratinocytes, 2×10^4 cells were seeded in 96-well plates. Cells were incubated for 24 hours and then treated with 50 μg/ml LPS, 100 ng/ml human TNF-α, 100 or 200 ng/ml human IL-17A, 200 ng/ml human IL-22, 100 ng/ml human IL-23, or 50 ng/ml IFN-γ at 37° C. for 48 hours. In addition, the MEK inhibitor PD98059 was added along with stimulation by LPS or IL-17A (48 hours). The supernatants were then collected and analyzed by ELISAs, which were performed using a specific combination of paired antibodies (capture and detection antibodies).

[4] = test system: IL-8; experiment: IL-8 production by keratinocytes (ELISA); assay type: cell-based, human; conditions: HaCaT and HEKn cells subjected to immune stimuli, ELISA
Description: as §1

[5] = test system: miR-146a; experiment: miR-146a expression in keratinocytes (real-time PCR); assay type: cell-based, human; conditions: HaCaT and HEKn cells treated with IL-17A
Description: For miR-146a quantification, total RNA samples were converted to cDNA, and real-time PCR was conducted with specific primers targeting miR-146a. Human GAPDH and U6 snRNA were selected as internal controls for normalization of the levels of mRNAs and miRNAs, respectively. Relative levels of mRNAs and miRNAs were calculated, and fold changes were obtained by the ΔΔCt method and compared with vector-only control cells.

[6] = test system: galectin-7; experiment: Galectin-7 mRNA in lung cancer cell lines (qPCR); assay type: cell-based, human; conditions: CL100 and PC9-IR cells, 24 hours; methylprednisolone 10.6 μM, tobramycin 8.6 μM, fluvastatin 9.2 μM, pempidine 13 μM
Description: CL83, CL141, CL100, CL25, PC9, PC9-IR, CL97, H1975, and H3255 cells were obtained from Dr. Pan-Chyr Yang (National Taiwan University, Taiwan), and A-431 (ATCC© CRL-1555™), H1650 ((ATCC© CRL-5883™)) and HCC827 ((ATCC© CRL-2868™)) cells were purchased from ATCC. Cells were cultured in RPMI 1640 medium supplemented with 10% fetal bovine serum (Gibco). The mRNA of A549, H23, H226BR, H358, H460, H661, H928, H1299, H1435, and H1437 cells were produced by conventional method, such as the method as described herein.
Total RNA from each lung cancer cell clone was extracted using TRIzol Reagent (Invitrogen), and cDNA for real-time PCR was generated using the iScript cDNA synthesis kit (Bio-Rad). Quantitative real-time PCR was performed using TaqMan buffer (Roche), and the primers and probes were designed using the Roche Universal Library (UPL). […] For real-time PCR, the CFX Connect Real-Time PCR System (Bio-Rad) was used, and the data were analyzed using CFX Manager software, in which the ΔΔCt method was employed to normalize the data against the endogenous control GAPDH.

[7] = test system: S100A7; experiment: S100A7 mRNA expression in HaCaT cells (real-time PCR); assay type: cell-based, human; conditions: 24 hours, methylprednisolone 10.6 μM, tobramycin 8.6 μM, fluvastatin 9.2 μM, pempidine 13 μM

CC[C@H](C)C(=O)O[C@H]1C[C@@H](C)C=C2C=C[C@H](C)[C@H](CC[C@@H]3C[C@@H](O)CC(=O)O3)[C@H]21 [lovastatin]
galectin-7 expression ([1]; keratinocytes, other statin drugs, data not shown): induced galectin-7 expression
galectin-7 expression in transplanted tumors [2]: increased

IL-17A: cytokine known to promote psoriatic inflammation
IL-6 production [3]: induced
IL-8 production [4]: induced
galectin-7 protein expression ([1]; HEKn cells): reduced
galectin-7 protein expression ([1]; HaCaT cells): reduced
miR-146a expression [5]: induced miR-146a expression

CN1C(C)(C)CCCC1(C)C [pempidine]
galectin-7 mRNA and protein expression ([1]; HaCaT cells): only fluvastatin induced
galectin-7 expression (LGLAS7 mRNA) [6]: only fluvastatin induced
S100A7 mRNA expression [7]: only fluvastatin

NC[C@H]1O[C@H](O[C@H]2[C@H](O)[C@@H](O[C@H]3O[C@H](CO)[C@@H](O)[C@H](N)[C@H]3O)[C@H](N)C[C@@H]2N)[C@H](N)C[C@@H]1O [tobramycin]
galectin-7 mRNA and protein expression ([1]; HaCaT cells): only fluvastatin induced
galectin-7 expression (LGLAS7 mRNA) [6]: only fluvastatin induced
S100A7 mRNA expression [7]: only fluvastatin
